Reference: US20240293425A1, “BZD-1 AS A CHEMO[…] CANCER” (University of Cincinnati, priority 2021, published 2024)
Values after ≈ are worked out from the molar mass of the structure shown.

Legend:
[1] = test system: methylated and unmethylated GBM cells; experiment: In vitro cytotoxicity of GBM cells, BZD-1 and TMZ single or combined; assay type: cell-based
[2] = test system: unmethylated GBM lines BT142-GFP and G43; experiment: Spheroid assay; assay type: cell-based; settings: BZD-1 + TMZ; BT142-GFP and G43 spheroids; qualitative
Procedure: Spheroid assays were carried out using two unmethylated GBM lines: BT142-GFP (FIG. 3A) and G43 (FIG. 3B) to qualitatively assess the effect of BZD-1+TMZ.

[3] = Stability of co-solvent formulation at room temperature; assay type: physicochemical
[4] = test system: H1792 human lung cancer cells; experiment: MTS proliferation assay, BZD-1 alone; assay type: cell-based
Procedure: 10^3 H1792 cells/well in 100 uL of medium were plated in a 96 well plate and allowed to attach for 24 hrs. The next day, BZD-1 (stock, 40 mM in DMSO) was first diluted to 40 μM in fresh cell culture medium, then serially 2-fold diluted. Medium on cells was then carefully aspirated and replaced with 100 μL of vehicle (DMSO)/drug containing medium, with 5 replicated for each control/drug dilution. Cells were returned to the incubator for 48 hours.
For MTS Assay, medium was carefully aspirated and replaced with 100 μL of phenol red free medium. Then 20 μL of MTS reagent (Cell Titer 96 Aqueous Non-Radioactive Cell Proliferation Assay reagent—Promega) was added to each well. The plate was returned to incubator for 1 hour, then OD acquired at 490 nm in a plate reader. OD values were then analyzed, and the graph obtained using GraphPad Prism.

[5] = test system: H1792 human lung cancer cells; experiment: MTS proliferation assay, DTX + 2.5 μM BZD-1; assay type: cell-based
Procedure: 10^3 H1792 cells/well in 100 μL of medium were plated in a 96 well plate and allowed to attach for 24 hrs. The next day, large volume of fresh medium containing 2.5 μM BZD-1 was prepared from 40 mM BZD-1 stock in DMSO. For Docetaxel (DTX) dilutions, either fresh medium was used for DTX only or 2.5 μM BZD-1 containing medium was used for DTX+2.5 μM BZD-1 treatment. Medium on cells was then aspirated and replaced by 100 μL of vehicle (DMSO)/drug containing media, with 5 replicated for each control/drug dilution. Cells were returned to the incubator for 48 hours.
For MTS Assay, medium was aspirated and replaced by 100 μL of phenol red free medium. Then 20 μL of MTS reagent (Cell Titer 96 Aqueous Non-Radioactive Cell Proliferation Assay reagent—Promega) was added to each well. The plate was returned to incubator for 1 hour, then OD acquired at 490 nm in a plate reader. OD values were then analyzed, and the graph obtained using GraphPad Prism.
10^3 H1792 cells/well in 100 μL of medium were plated in a 96 well plate and allowed to attach for 24 hrs. […]
For MTS Assay, medium was aspirated and replaced with 100 μL of phenol red free medium. […] The plate was returned to the incubator for 1 hour, then OD acquired at 490 nm in a plate reader. OD values were then analyzed, and the graph obtained using GraphPad Prism.

[6] = test system: H1792 cells; experiment: Clonogenic assay, BZD-1 with or without 0.5 nM DTX; assay type: cell-based, human; settings: BZD-1 + 0.5 nM DTX, 12 days
Procedure: 300 H1792 cells/well in 3 mL of medium were plated in a 6 well plate and allowed to attach for 36 hrs. A large volume of fresh medium containing 0.5 nM Docetaxel (DTX) was prepared from 1 mM stock in DMSO. For BZD-1 dilution, either fresh medium or +0.5 nM DTX containing medium was used. Medium on cells was then aspirated and replaced by 3 mL of vehicle (DMSO)/Drug containing media in triplicate for each control/drug dilution. Cells were returned to the incubator for 12 days. For staining, medium was aspirated, cells were washed 1× with PBS and fixed 15 minutes with methanol at room temperature. Methanol was then removed, and crystal violet staining solution added to cells and incubated 30 minutes at room temperature. Plates were then washed extensively with tap water, dried and pictured.

[7] = test system: H1792 xenograft tumor; experiment: H1792 flank xenograft dose response; assay type: in vivo, NOD-SCID mice
Procedure: NOD-SCID mice (3 mice/group) were implanted with 10^6 H1792 cells s.c. in both flanks. When the tumors were palpable (day 11 post implantation), treatment was started and consisted of daily i.p. injections of vehicle (DMSO) or BZD-1 drug dissolved in DMSO for 7 days. Tumor size was measured every other day using a caliper. Tumor volume was calculated as follows: […]
At day 46 post tumor implantation, mice were euthanized following institutional IACUC procedures. Tumors from both flanks were resected, weighed, and average tumor mass for each group was calculated, plotted, and photographed.

[8] = Pharmacokinetics, brain penetration
[9] = Metabolic stability in human liver microsomes; settings: within 1 hr
[10] = test system: rats; experiment: Visible adverse effects after single dose i.p.; settings: 12 hrs after single dose i.p., co-solvent formulation
[11] = Solubility in co-solvent injectable formulation; settings: co-solvent based injectable formulation, aqueous with cosolvent or surfactant or cyclodextrin
[12] = daily i.p. for 7 days, NOD-SCID mice

C#Cc1ccc2c(c1)C(c1ccccc1F)=NCC(=O)N2C [BZD-1, 7-ethynyl-5-(2-fluorophenyl)-1-methyl-1,3-dihydro-2H-benzo[e][1,4]diazepin-2-one]
Effect of combined therapy on TMZ resistance ([1]; BZD-1 + TMZ, unmethylated GBM cell lines): overcomes TMZ resistance | Synergy of BZD-1 and TMZ (Chou-Talay Combination Index Equation) ([1]; BZD-1 in combination with TMZ, GBM cells): act synergistically | Spheroid response to combination therapy [2]: significant disaggregation | Stable at room temperature [3]: up to 6 months | Proliferation of H1792 cells ([4]; 48 hours, in vitro): inhibits proliferation | IC50 ([4]; Homo sapiens, NCI-H1792, 48 hours): 4.5 to 6 µM | Effect on docetaxel cytotoxicity ([5]; 2.5 μM BZD-1 + DTX, 48 hours, MTS): potentiates the cytotoxic effect of docetaxel | Combination Index (CI) ([5]; BZD-1 combined with DTX, H1792 cell growth in vitro): 0.6 | Clonogenic growth, combination with docetaxel [6]: work synergistically | Most effective dose [7, 12]: 2.5 mg/kg | Tumor volume compared to vehicle [7, 12]: reduced tumor volume | Sedation in the animal model ([7]; doses higher than 2.5 mg/kg): sedating | Time of penetration into the brain ([8]; brain): ≤ 5 min | Accumulation in brain extracellular fluid ([8]; brain extracellular fluid): 161.3 ng/mL | Breakdown products in human liver microsomes [9]: no breakdown products were found | Visible adverse effects [10]: no visible adverse effects | solubility [11]: 10000 µg/mL (≈ 34.2 mM)
